Assay results as given in PubChem BioAssay AID743276 (Broad Institute, 2014).
Results filed as inconclusive are left out. Calls of active or inactive are those of the source.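 How the source made its calls: active means compounds whose fitted cell loss curve, in every repeat run, reached half effect below twice the top dose; inconclusive means repeat runs disagree, or runs show weak or poorly fitted drops; inactive means every repeat run called inactive.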

Assays:
[1] = system: CAPAN-1 cell number, Hoechst imaging, 14 days; assay: reduction of CAPAN-1 cell number – imaging, dry powder, set 3, dose response (AID 743276)
[2] = as above; conditions: CAPAN-1 cell number, Hoechst imaging, 14 days; at 50 µM (top of the series)

| Structure (SMILES) | AC50 [1] [µM] | activity change, negative = fewer cells [2] |
| --- | --- | --- |
| CN1CCN(CCCNC(=O)c2cc3c(-c4ccc(Cl)cc4)nn(C)c3s2)CC1 | 10.5 | – |
| O=c1c2c(-c3ccccc3)csc2nc2c3ccccc3c(NCCN3CCOCC3)nn12 | – | -15.7% (inactive) |
| Cc1cc(C)c2sc(N(CCCN(C)C)C(=O)CN3C(=O)c4ccccc4C3=O)nc2c1 | 22.2 | – |
| CC1(C)CC(NC(=O)c2ccc(Cl)c(S(=O)(=O)N(Cc3ccccc3)c3ccccc3)c2)CC(C)(C)N1 | 12.8 | – |
| Cn1nc(-c2ccc(Cl)cc2)c2cc(C(=O)NCCCN3CCCC3)sc21 | 3.72 | – |
| CCN(CC)CCNC(=S)Nc1ccc2nc(N3CCN(CC)CC3)cc(C)c2c1 | 13.8 | – |
| c1ccc(-c2cc(N3CCC(N4CCCC4)CC3)n3nccc3n2)cc1 | 46.1 | – |
| CCCCN(CC)CCCNC(=S)Nc1ccc2nc(N3CCN(C)CC3)cc(C)c2c1 | 37.8 | – |
| Cc1ccc2nc(-c3ccc(NC(=S)NC4CC(C)(C)NC(C)(C)C4)cc3)sc2c1 | 12.1 | – |
| CN(C)CCCN(C(=O)c1ccc(C(=O)c2ccccc2)cc1)c1nc2cc3c(cc2s1)OCO3 | 12.7 | – |
| Cc1cc(C)n(-c2nc(NCCN(C)C)c3c4c(sc3n2)CCCC4)n1 | 15.4 | – |
| Cc1c(C(=O)Nc2ccc(S(=O)(=O)N(C)C3CCN(C)CC3)cc2)oc2c(Cl)cccc12 | 11.2 | – |
| COc1ccc(C2NCCc3c2[nH]c2ccccc32)cc1COc1ccc(F)cc1 (stereo not drawn) | 18.7 | – |
| CCCNc1nc(Cl)nc(NCc2cccnc2)n1 | – | -7.79% (inactive) |
| COc1ccc2oc(C(=O)c3ccccc3)c(NC(=O)CN3CCN(C)CC3)c2c1 | 13.5 | – |
| CCN1CCN(CCCNC(=O)C2CCN(c3nnc(-n4c(C)ccc4C)s3)CC2)CC1 | 20.5 | – |
| CCCCN(CC)CCNC(=O)c1cc2c(-c3ccc(Cl)cc3)nn(C)c2s1 | 3.57 | – |
| CCN(CC)CCCN(Cc1cc2cc3c(cc2[nH]c1=O)OCO3)C(=S)NCCCN(C)C | – | -1.27% (inactive) |
| Cc1ccc2sc(N(CCCN(C)C)C(=O)c3ccc(S(=O)(=O)N(C)Cc4ccccc4)cc3)nc2c1C | 9.25 | – |

| Structure (SMILES) | AC50 [1] [µM] | activity change, negative = fewer cells [2] |
| --- | --- | --- |
| COc1ccccc1Nc1nc(NCCO)c2ccccc2n1 | 24.6 | – |
| COc1ccccc1Nc1nc(NCCCO)c2ccccc2n1 | 31.1 | – |
| CN(C)CCCN(C(=O)c1nc2ccccc2s1)c1nc2ccc(F)cc2s1 | 17 | – |
| COc1ccc(-c2oc3ncnc(NCCCN4CCOCC4)c3c2-c2ccc(OC)cc2)cc1 | 43.8 | – |
| Cc1ccc(C(=O)c2oc3ccc(Cl)cc3c2NC(=O)CN2CCN(C)CC2)cc1 | 9.78 | – |
| Cc1ccc2sc(N(CCCN(C)C)C(=O)c3ccc(S(=O)(=O)N(C)C4CCCCC4)cc3)nc2c1C | 24 | – |
| CCN1CCc2c(sc(NC(=O)c3ccc(OC)cc3OC)c2C(N)=O)C1 | 32.7 | – |
| C=C1Nc2cc(-c3ccc(Cl)cc3)nn2C(NCCN(C)C)=C1C | 8.39 | – |
| CCN(CC)CCN(C(=O)C1=COCCO1)c1nc2c(OC)ccc(OC)c2s1 | 47.5 | – |
| Cc1cc(N2CCN(C)CC2)nc2ccc(NC(=S)NCCCN3CCN(C)CC3)cc12 | 43.7 | – |
| CN(C)CCCNC(=S)N(CCN(C)C)Cc1cc2cc3c(cc2[nH]c1=O)OCCO3 | – | -2.03% (inactive) |
| OCCNc1nc(Nc2ccccc2F)nc2ccccc12 | 32 | – |
| CCCCN(CC)CCNC(=O)CCC(=O)Nc1ccc2nc(N3CCN(C)CC3)cc(C)c2c1 | 25.1 | – |
| CN(C)CCCNC(=S)NCC(c1ccc(Cl)cc1Cl)c1c[nH]c2ccccc12 (stereo not drawn) | 27.4 | – |
| CCCN(CCC)CCCNC(=S)Nc1ccc2nc(N3CCN(CC)CC3)cc(C)c2c1 | 22.8 | – |
| CCCN1CCN(CCCNC(=S)Nc2ccc3nc(N4CCN(CC)CC4)cc(C)c3c2)CC1 | 24.7 | – |
| CCN1CCN(C(=S)Nc2ccc3nc(N4CCN(C)CC4)cc(C)c3c2)CC1 | 10.7 | – |
| Cc1cc(C)c2c(c1)c1nnc(SCCN3CCCCC3)nc1n2C | 42.3 | – |
| CCN1CCN(c2cc(C)c3cc(NC(=O)c4ccccn4)ccc3n2)CC1 | 35.6 | – |
